The source of these data is patent US10766894B2, “Aza-indazole compounds for use in tendon and/or ligament injuries” (NOVARTIS AG, priority 2016, dated 2020).

Data set [1] has as its system Scleraxis (Scx) gene expression in rat tail tendon fascicles. Briefly: Ex vivo assay, tendon fascicles, Scleraxis mRNA (qPCR). Conditions: 96 h. Type of data set: cell-based, Sprague Dawley rat. A general note: In qPCR the cycle at which signal appears reflects the starting amount.
Data set [2] concerns Tenomodulin (Tnmd) gene expression in rat tail tendon fascicles. The data set is described as follows: Ex vivo assay, tendon fascicles, Tenomodulin mRNA (qPCR). Type of data set: cell-based, Sprague Dawley rat. The note with it: 96 h.
The subject of data set [3] is collagen type 1 (Col1a2) gene expression in rat tail tendon fascicles. Briefly: Ex vivo assay, tendon fascicles, collagen type 1 mRNA (qPCR). Type of data set: cell-based, Sprague Dawley rat. Conditions: 96 h.
The target in data set [4] is recombinant human Jak1 (aa 866-1154) (Homo sapiens (Human), UniProt P23458). The data set is described as follows: Kinase panel, substrate peptide phosphorylation (Caliper mobility shift), JAK1. The class given is biochemical. The note with it: 3 nM kinase, 45 uM ATP, 60 min at 30° C.
Data set [5] deals with recombinant human Jak2 (aa808-1132) (Homo sapiens (Human), UniProt O60674). Briefly: Kinase panel, substrate peptide phosphorylation (Caliper mobility shift), JAK2. Type of data set: biochemical.
For data set [6], the target named is recombinant human Jak3 (aa811-1124) (Homo sapiens (Human), UniProt P52333). The data set is described as follows: Kinase panel, substrate peptide phosphorylation (Caliper mobility shift), JAK3. Type of data set: biochemical.
For data set [7], the target named is recombinant human Tyk2 (aa888-1187) (Homo sapiens (Human), UniProt P29597). Briefly: Kinase panel, substrate peptide phosphorylation (Caliper mobility shift), TYK2. The class given is biochemical. The note with it: 3 nM kinase, 45 uM ATP, 60 min at 30° C.
Data set [8] deals with mouse immortalized TT-D6 Scx-luciferase (ScxL) cell line; transcriptional activation of Scleraxis (Scx) gene. The data set is described as follows: SCX-LUC in vitro assay (scleraxis promoter luciferase reporter). The class given is cell-based. The note with it: Mus musculus, 96 h. In general terms: Reporter assays use an easily measured gene product as a stand-in for the process of interest.

Data set [9] can be described thus: Cumulative release from PLGA microparticle formulations in PBS buffer. Type of data set: physicochemical. The note with it: incorporated into PLGA microparticles, PBS buffer pH 7.4, 1% Tween 20. From the text: In the current invention, the microparticles formulation contains a copolymer of DL-lactide and glycolide in a 50:50 molar ratio with an ester end group plus Test Compound A is used. The total amount of Test Compound A incorporated into the microparticles ranges from 2% to 10% (w/w). The microparticles are formulated to mean mass range in size from 5 to 25 microns. The population of microparticles is formulated to be delivered through a 22 gauges or higher needles (see Table A below). Organic solvent was used for preparation of microparticles were dichloromethane (DCM) and ethyl acetate (EA) either alone or in combination with methanol (MeOH) and/or dimethyl sulfoxide (DMSO) e.g., ratio of MeOH/DMSO from 5-15% in DCM or EA as primary solvent. Additional excipients may be added such as, but not limited to, carboxymethylcellulose sodium, mannitol and ploxamer to achieve isotonicity and promote syringeability.
(§1) Test Compound A incorporated into the microparticles provides an initial release (burst) of about 5-10% of drug over a period of 1 to 2 days, followed by a steady state release of drug over a period of 21 days (FIG. 1). In-vivo the microparticles could extend the release of Test Compound A over 4 weeks in a rat model.

Data set [10] can be described thus: In-vivo release from microparticles in a rat model.
Description: as §1

Where [11] appears, read: Rattus norvegicus, read-out: Ex vivo SCX (EC50 uM).
Setting [12] is: Rattus norvegicus, read-out: Ex vivo Tnmd (EC50 uM).
[13] abbreviates: Rattus norvegicus, read-out: Ex vivo Col1a2 (EC50 uM).
Where [14] appears, read: Examples table, TT-D6 Scx-luciferase cells, 1 ng/ml TGFβ1, four days, read-out: Scx-Luc (EC50 μM).
The mark [15] stands for this setting: Examples table, rat tail tendon fascicles, four days, delta-delta Ct, read-out: Ex vivo Scx (EC50 μM).
Where [16] appears, read: Examples table, rat tail tendon fascicles, four days, delta-delta Ct, read-out: Ex vivo Tnmd (EC50 μM).
Where [17] appears, read: Examples table, rat tail tendon fascicles, four days, delta-delta Ct, read-out: Ex vivo Col1a2 (EC50 μM).
[18] abbreviates: Table 1, TT-D6 Scx-luciferase cells, 1 ng/ml TGFβ1, four days, read-out: Scx-Luc (EC50 uM).

Read-outs that look alike come from different tables or passages of the source. A value given as a limit tells only on which side of the number the result lay.

recombinant human Tyk2 (aa888-1187), sequence (P29597 888-1187): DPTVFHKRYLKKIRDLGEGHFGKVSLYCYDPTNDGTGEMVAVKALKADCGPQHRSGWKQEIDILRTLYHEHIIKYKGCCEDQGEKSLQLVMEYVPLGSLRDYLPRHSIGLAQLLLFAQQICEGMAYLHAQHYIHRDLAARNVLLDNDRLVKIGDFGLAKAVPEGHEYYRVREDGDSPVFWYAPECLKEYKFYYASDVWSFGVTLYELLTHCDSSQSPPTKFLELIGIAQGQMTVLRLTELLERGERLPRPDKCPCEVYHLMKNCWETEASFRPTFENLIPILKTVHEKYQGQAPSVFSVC
recombinant human Jak3 (aa811-1124), sequence (P52333 811-1124 limits assumed): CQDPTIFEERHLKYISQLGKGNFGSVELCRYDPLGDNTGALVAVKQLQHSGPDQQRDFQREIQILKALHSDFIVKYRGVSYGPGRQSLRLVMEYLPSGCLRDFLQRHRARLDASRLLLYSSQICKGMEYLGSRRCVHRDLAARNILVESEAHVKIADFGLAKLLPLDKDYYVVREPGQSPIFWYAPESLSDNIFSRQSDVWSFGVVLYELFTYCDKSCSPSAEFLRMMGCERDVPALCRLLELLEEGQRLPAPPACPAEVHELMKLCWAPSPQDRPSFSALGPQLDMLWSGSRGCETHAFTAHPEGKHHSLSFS
recombinant human Jak1 (aa 866-1154), sequence (P23458 866-1154): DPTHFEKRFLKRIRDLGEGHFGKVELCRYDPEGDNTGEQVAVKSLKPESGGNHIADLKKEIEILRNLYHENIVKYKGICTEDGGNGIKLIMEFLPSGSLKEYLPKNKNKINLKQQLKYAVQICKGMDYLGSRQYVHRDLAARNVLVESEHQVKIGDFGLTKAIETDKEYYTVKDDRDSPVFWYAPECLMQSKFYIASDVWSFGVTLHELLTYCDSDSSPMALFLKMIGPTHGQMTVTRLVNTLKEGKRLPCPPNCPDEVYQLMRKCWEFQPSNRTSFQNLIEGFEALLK
recombinant human Jak2 (aa808-1132), sequence (O60674 808-1132): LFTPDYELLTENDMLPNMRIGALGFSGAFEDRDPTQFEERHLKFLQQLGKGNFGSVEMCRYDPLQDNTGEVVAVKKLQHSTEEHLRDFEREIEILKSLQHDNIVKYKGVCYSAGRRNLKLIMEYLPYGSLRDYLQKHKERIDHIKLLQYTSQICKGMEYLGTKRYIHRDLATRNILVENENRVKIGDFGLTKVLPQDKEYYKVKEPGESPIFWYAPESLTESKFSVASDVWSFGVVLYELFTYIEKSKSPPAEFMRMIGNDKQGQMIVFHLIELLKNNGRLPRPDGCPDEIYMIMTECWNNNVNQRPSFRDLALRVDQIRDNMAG

The term EC50 denotes the midpoint of the concentration-response curve. One may read the IC50 as the concentration that inhibits the measured activity by half. For `N#C[C@@H]1C[C@H](N2CCC2)CC[C@H]1n1cc(C(N)=O)c(Nc2ccc(C(F)(F)F)cc2)n1`, the figures for the EC50 in [1] (setting [11]), in data set [2] (setting [12]) and in data set [3] (setting [13]) were 5.63 µM, 5.76 µM and 3.65 µM, respectively. Besides, the IC50 was 0.002 µM in data set [4], 0.24 µM in data set [5], 10 µM in data set [6] and 0.12 µM in data set [7].

`Cc1cc(S(=O)(=O)N[C@H]2C[C@](O)(C(F)(F)F)C2)ccc1-c1ccc2[nH]nc(N)c2n1` [Example 2, 4-(3-amino-1H-pyrazolo[4,3-b]pyridin-5-yl)-N-((1s,3s)-3-hydroxy-3-(trifluoromethyl)cyclobutyl)-3-methylbenzenesulfonamide]: the 50% effective concentration (EC50) in data set [8] (setting [14]) was 0.376 µM. Further, the “period of steady state release of drug” value in data set [9] (after initial burst) is 21 days. Further, the “initial release (burst) of drug” value in data set [9] (over a period of 1 to 2 days) is given as 5-10%. Also, in data set [10], the extended release in-vivo was determined as 4 weeks.

Take `Nc1n[nH]c2ccc(-c3ccc(S(=O)(=O)N4CC5CC5C4)cc3Cl)nc12` (centres unmarked) [Example 63, 5-(4-(3-azabicyclo[3.1.0]hexan-3-ylsulfonyl)-2-chlorophenyl)-1H-pyrazolo[4,3-b]pyridin-3-amine]: the EC50 amounted to 1.24 µM in data set [8] (setting [14]), 2.12 µM in [1] (setting [15]), 4.6 µM in data set [2] (setting [16]) and 3.34 µM in [3] (setting [17]).

On to `Cc1cc(S(=O)(=O)N2CC(O)(C(F)(F)F)C2)ccc1-c1ccc2[nH]nc(N)c2n1` [Example 66, 1-((4-(3-amino-1H-pyrazolo[4,3-b]pyridin-5-yl)-3-methylphenyl)sulfonyl)-3-(trifluoromethyl)azetidin-3-ol], for which the EC50 was 0.794 µM in data set [8] (setting [14]), 0.89 µM in [1] (setting [15]), 0.719 µM in data set [2] (setting [16]) and 0.921 µM in [3] (setting [17]).

With `Nc1n[nH]c2ccc(-c3ccc(S(=O)(=O)NCCO)cc3Cl)nc12` [Example 72, 4-(3-amino-1H-pyrazolo[4,3-b]pyridin-5-yl)-3-chloro-N-(2-hydroxyethyl)benzenesulfonamide], the EC50 in data set [8] (setting [14]) was 4.09 µM; in [1] (setting [15]), 3.94 µM; in data set [2] (setting [16]), 3.42 µM; in data set [3] (setting [17]) it was 3.28 µM.

Turning to `Nc1n[nH]c2ccc(-c3ccc(NS(=O)(=O)c4ccc5ccccc5c4)cc3Cl)nc12` [Example 82, N-(4-(3-amino-1H-pyrazolo[4,3-b]pyridin-5-yl)-3-chlorophenyl)naphthalene-2-sulfonamide], the EC50 in data set [8] (setting [14]) was 2.61 µM; in [1] (setting [15]), over 10 µM; in data set [2] (setting [16]) it was 4.87 µM; in data set [3] (setting [17]) it was 7.27 µM.

As to `CC(=O)N1CCOc2ccc(S(=O)(=O)Nc3ccc(-c4ccc5[nH]nc(N)c5n4)c(Cl)c3)cc21` [Example 86, 4-acetyl-N-(4-(3-amino-1H-pyrazolo[4,3-b]pyridin-5-yl)-3-chlorophenyl)-3,4-dihydro-2H-benzo[b][1,4]oxazine-6-sulfonamide], the EC50 in data set [8] (setting [14]) is 5.39 µM; in data set [1] (setting [15]), over 10 µM; in data set [2] (setting [16]), 4.86 µM; in data set [3] (setting [17]) it was over 10 µM.

With `CC(O)(C1CN(S(=O)(=O)c2ccc(-c3ccc4[nH]nc(N)c4n3)c(Cl)c2)CCN1)C(F)(F)F` (centres unmarked) [Example 89, 2-(4-((4-(3-amino-1H-pyrazolo[4,3-b]pyridin-5-yl)-3-chlorophenyl)sulfonyl)piperazin-2-yl)-1,1,1-trifluoropropan-2-ol], the EC50 in data set [8] (setting [14]) worked out at 2.19 µM; in data set [1] (setting [15]), 4.44 µM; in data set [2] (setting [16]), 5.01 µM; in data set [3] (setting [17]), 7.27 µM.

Take `Nc1n[nH]c2ccc(-c3ccc(S(=O)(=O)NC4CS(=O)(=O)C4)cc3Cl)nc12` [Example 92, 4-(3-amino-1H-pyrazolo[4,3-b]pyridin-5-yl)-3-chloro-N-(1,1-dioxidothietan-3-yl)benzenesulfonamide]: the EC50 in data set [8] (setting [14]) turned out to be 0.968 µM; in [1] (setting [15]), 4.89 µM; in data set [2] (setting [16]), 6.28 µM; in data set [3] (setting [17]), 1.35 µM.

As for `CS(=O)(=O)C1CN(S(=O)(=O)c2ccc(-c3ccc4[nH]nc(N)c4n3)c(Cl)c2)C1` [Example 93, 5-(2-chloro-4-((3-(methylsulfonyl)azetidin-1-yl)sulfonyl)phenyl)-1H-pyrazolo[4,3-b]pyridin-3-amine], the EC50 in data set [8] (setting [14]) turned out to be 5.74 µM; in data set [1] (setting [15]) it was 2.95 µM; in data set [2] (setting [16]) it was 3.52 µM; in [3] (setting [17]), 1.76 µM.

As to `N#CC[C@H](C1CCCC1)n1cc(-c2ncnc3[nH]ccc23)cn1` [reference compound], the EC50 in data set [8] (read-out: Scx-Luc (EC50 uM)) amounted to 0.12 µM; in data set [1] (setting [11]), 3.13 µM; in data set [2] (setting [12]), 0.74 µM; in data set [3] (setting [13]) it was 2.64 µM.

`CC[C@@](C)(Nc1ccnc(-c2c[nH]c3ncccc23)n1)C(=O)NCC(F)(F)F` [reference compound]: the EC50 in [8] (read-out: Scx-Luc (EC50 uM)) came out at 0.03 µM; in data set [1] (setting [11]), 1.65 µM; in [2] (setting [12]), 1.77 µM; in data set [3] (setting [13]), 0.88 µM.

Consider `Cc1cc(Nc2nc(N[C@@H](C)c3ncc(F)cn3)ncc2Cl)n[nH]1` [reference compound], for which the EC50 in [8] (setting [18]) is 0.008 µM; in data set [1] (setting [11]), 3.37 µM; in data set [2] (setting [12]), 3.3 µM; in data set [3] (setting [13]) it was 2.61 µM.

`N#C[C@H]1C[C@H](O)CC[C@@H]1n1cc(C(N)=O)c(Nc2ccc(C(F)(F)F)cc2)n1` [reference compound]: the EC50 turned out to be 2.06 µM in [8] (read-out: Scx-Luc (EC50 uM)), 5.65 µM in data set [1] (setting [11]), 3.82 µM in data set [2] (setting [12]) and 3.97 µM in data set [3] (setting [13]). Further, the IC50 turned out to be 0.004 µM in [4], 0.15 µM in data set [5], 10 µM in data set [6] and 0.11 µM in data set [7].

With `N#C[C@H]1C[C@@H](N2CCC2)CC[C@@H]1n1cc(C(N)=O)c(Nc2ccc(C(F)(F)F)cc2)n1` [reference compound], the EC50 in data set [8] (read-out: Scx-Luc (EC50 uM)) amounted to 2.05 µM; in data set [1] (setting [11]), 1.16 µM; in [2] (setting [12]), 0.08 µM; in data set [3] (setting [13]) it was 0.42 µM. Besides, the IC50 in data set [4] was 0.04 µM; in [5], 2.7 µM; in data set [6] it was 10 µM; in data set [7], 1.8 µM.

In the case of `N#C[C@H]1CC(=O)CC[C@@H]1n1cc(C(N)=O)c(Nc2ccc(C(F)(F)F)cc2)n1` [reference compound], the EC50 was 1.24 µM in [8] (setting [18]); 0.85 µM in [1] (Table 1, rat tail tendon fascicles, four days, delta-delta Ct, read-out: Ex vivo SCX (EC50 uM)); 4.83 µM in [2] (Table 1, rat tail tendon fascicles, four days, delta-delta Ct, read-out: Ex vivo Tnmd (EC50 uM)); 0.94 µM in [3] (Table 1, rat tail tendon fascicles, four days, delta-delta Ct, read-out: Ex vivo Col1a2 (EC50 uM)).

In the case of `O=C(Nc1nc2cccc(-c3ccc(OCc4cccnc4)cc3)n2n1)C1CC1` [reference compound], the EC50 in [8] (setting [18]) amounted to 0.02 µM; in data set [1] (setting [11]), 0.36 µM; in data set [2] (setting [12]) it was 5.99 µM; in data set [3] (setting [13]), 0.4 µM.

As for `O=C(Nc1nc2cccc(-c3ccc(CN4CCS(=O)(=O)CC4)cc3)n2n1)C1CC1` [reference compound], the EC50 in data set [8] (read-out: Scx-Luc (EC50 uM)) is 4.32 µM; in data set [1] (setting [11]) it was 5.34 µM; in data set [2] (setting [12]) it was 6.93 µM; in [3] (setting [13]), 5.01 µM.
